# Assay results taken from ChEMBL document CHEMBL5500399, “Design, Synthesis, and Biological Evaluation of 1,2,4-Oxadiazole Derivatives Containing an Aryl Carboxylic Acid Moiety as Potent Sarbecovirus Papain-like Protease Inhibitors” (J Med Chem, 2024).
# Assays:
# [1] = test system: SARS-CoV-2; assay: microbe, parasite or virus in culture; settings: Severe acute respiratory syndrome coronavirus 2, 2019-nCoV, Vero C1008
# [2] = test system: SARS-CoV-2; assay: microbe, parasite or virus in culture; settings: Severe acute respiratory syndrome coronavirus 2, Omicron BA.1, Vero C1008
Compound,EC50 [1] [µM],EC50 [2] [µM]
CC(c1nc(-c2ccc(-c3ccc(C(=O)O)s3)cc2)no1)c1cccc2ccccc12 (centres undefined),5.4,25.2
Cc1ccc(-c2noc(C(C)c3ccc(-c4ccccc4)c(F)c3)n2)cc1NCc1ccc(C(=O)O)s1 (racemic),4.3,79.8
